For data set [1] the following is noted: may be eliminated more slowly in obese individuals; cited from earlier work.
Data set [2] has as its system intense, bilateral pain in both feet. The experiment in a line: Case report: patient with bilateral foot pain, oral drug treatment. The settings on record: for decrease in pain: foot pain from stretched plantar fascia, earlier drug treatments. The format is in vivo, human patient. The procedure: Additionally, the patient was treated with topical lidocaine and with a tens machine.

For data set [3] the following is noted: has been reported; cited from earlier work.
In data set [4] the test system is intense, bilateral pain in both feet. The experiment in a line: Case report: same foot-pain patient, topical application in a cream. The format is in vivo, human patient. The conditions noted are these: applied topically in a cream.
Data set [5] deals with pain in patient with metastatic cancer. The experiment in a line: Case report: second patient with metastatic cancer pain. The format is in vivo, human patient. From the text:
A second patient with metastatic cancer was also experiencing pain and had reported little or no relief from common analgesics.

The text below walks through data of patent US20040204443A1, “Method for inducing pain relief using imidazo[1,2-a]pyridine derivatives” (priority 2003, published 2004).

For the molecule `Cc1ccc(-c2nc3ccc(C)cn3c2CC(=O)N(C)C)cc1` [AMBIEN, N,N,6-trimethyl-2-p-tolyl-imidazo[1,2-a]pyridine-3-acetamide], in data set [1], the lipophilicity result was “lipophilic”. Besides, the “duration of pain abatement” value in data set [2] (obese person, 10 mg H.S.) fell in the range of 12 to 14 h. In addition, the “other foot pains (arch, heel, cuboid area)” value in data set [2] (person) is on record as “ameliorated”. In addition, the effective dosage entry in data set [2] (person, 10 mg H.S.) is reported as “about 0.08 mg per kg”. Further, the abatement of pain result in data set [2] (person, 10 mg H.S., able to walk prior to retiring) is “noticeable abatement of pain”. In data set [3], the “time in which metabolized” value is 6 to 8 h. For the same molecule, the “pain relief after topical application” value in data set [4] was “reported pain relief”. Also, the analgesic effect result in data set [5] is on record as “marked analgesic effect”.

Take `CN(C)CCC=C1c2ccccc2CCc2ccccc21` [Elavil, amitryptiline]: in data set [2] (person), the decrease in pain entry is recorded as “only the latter showing any decrease in pain”.

Take `Nc1nnc(-c2cccc(Cl)c2Cl)c(N)n1` [Lamictal]: the decrease in pain entry in data set [2] (person) is reported as “only the latter showing any decrease in pain”.

For `NCC1(CC(=O)O)CCCCC1` [Neurontin], the decrease in pain entry in data set [2] (person) was “only the latter showing any decrease in pain”.

For `CNCCC=C1c2ccccc2CCc2ccccc21` [Parmelar, nortryptiline], in data set [2] (person), the decrease in pain result was “only the latter showing any decrease in pain”.

For `CC1(C)O[C@@H]2[C@@H](CO[C@@]3(COS(N)(=O)=O)OC(C)(C)O[C@@H]23)O1` [Topamax], the decrease in pain result in data set [2] (person) is reported as “only the latter showing any decrease in pain”.

For the molecule `COc1cccc(C2(O)CCCCC2CN(C)C)c1` (centres unmarked) [Ultram], the decrease in pain entry in data set [2] (person) is on record as “only the latter showing any decrease in pain”.
